The test system of assay [1] is L 1210/R81 murine leukemia cells. The assay is described as follows: Cytotoxicity assay against L 1210/R81 murine leukemia cells, 48 hours. The class given is cell-based. As to conditions: for IC50: Mus musculus, L1210 ( R81), read-out: L1210/R81 cell growth inhibition IC50; for L1210/R81 normalized relative to MTX: number in parentheses. On the procedure: (§1) A cytotoxicity assay was carried out for the same group of compounds against L 1210 and L 1210/R81 murine leukemia cells cultured for 48 hours in RPMI 1640 medium containing 10% fetal bovine serum, using the procedure of Mosman, J. Immunol. Meth., Vol. 65, 55-63 (1983).

The test system of assay [2] is folylpolyglutamate synthetase (FPGS). The note with it: result in words; Rosowsky et al. (1986); cited from earlier work.
The subject of assay [3] is dihydrofolate reductase (DHFR). As to conditions: result in words; Rosowsky et al. (1986); cited from earlier work.
For assay [4], the system named is L 1210 murine leukemia cells. Briefly: Cytotoxicity assay against L 1210 murine leukemia cells, 48 hours. As to conditions: for IC50: Mus musculus, read-out: L1210 cell growth inhibition IC50; for L1210 normalized relative to MTX: number in parentheses. The class given is cell-based. On the procedure:
as §1

The subject of assay [5] is cell growth in culture. The note with it: result in words; Rosowsky et al. (1986); cited from earlier work.
In assay [6] the test system is CEM/MTX lymphoblasts. Briefly: Cell growth inhibition against human CEM/MTX lymphoblasts, 48 hours. The class given is cell-based. The note with it: for IC50: Homo sapiens, read-out: CEM/MTX cell growth inhibition IC50; for CEM/MTX normalized relative to MTX: number in parentheses. As to the method:
(§2) In addition, four of the compounds were tested against human CEM and CEM/MTX lymphoblasts cultured fcr 48 hours in Dulbecco's modified Eagle's medium containing 10% fetal bovine serum.

Assay [7] deals with T1, DHFR (Dihydrofolate Reductase) from L 1210/R81 murine leukemia cells (Mus musculus, UniProt P00375).
T1 construct: endogenous in cells; host or cells: L1210/R81 murine leukemia cells
T1 sequence (P00375 1-187): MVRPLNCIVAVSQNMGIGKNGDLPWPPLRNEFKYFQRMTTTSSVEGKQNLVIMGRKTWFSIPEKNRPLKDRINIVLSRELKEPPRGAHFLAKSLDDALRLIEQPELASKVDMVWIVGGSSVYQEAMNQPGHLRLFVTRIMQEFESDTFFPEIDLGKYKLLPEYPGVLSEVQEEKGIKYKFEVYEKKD
The assay is described as follows: Inhibition of DHFR purified by MTX affinity chromatography from L 1210/R81 murine leukemia cells (spectrophotometric, 340 nm). Format: biochemical. The note with it: range of six separate experiments on different days (footnote a, Table 1). On the procedure:
Inhibition of DHFR purified by MTX affinity chromatography from L 1210/R81 murine leukemia cells was determined. […] Certain of the compounds were also tested as inhibitors of partially purified FPGS from mouse liver.
IC50 concentrations (μM) were […]

Assay [8] deals with CEM lymphoblasts. The assay is described as follows: Cell growth inhibition against human CEM lymphoblasts, 48 hours. Format: cell-based. The note with it: for IC50: Homo sapiens, CCRF-CEM, read-out: CEM cell growth inhibition IC50; for CEM normalized relative to MTX: number in parentheses. As to the method: as §2
Assay [9] deals with SCC25/R1 cells. The assay is described as follows: Growth inhibition of MTX-resistant human squamous carcinoma cells SCC25/R1. The note with it: SCC-25, 336 h, continuous exposure about two weeks. Format: cell-based.
Assay [10] has as its system SCC15/R1 cells. The assay is described as follows: Growth inhibition of MTX-resistant human squamous carcinoma cells SCC15/R1. The class given is cell-based. As to conditions: SCC-15, 336 h, continuous exposure about two weeks.
The subject of assay [11] is SCC25 cells. Briefly: Growth inhibition of human squamous carcinoma cells SCC25. Format: cell-based. The note with it: SCC-25, 336 h, continuous exposure about two weeks.
In assay [12] the test system is L1210, L1210/R81, CEM and CEM/MTX cells. Briefly: Cell growth inhibition of Table 2 (joint statement). Format: cell-based, murine; human. As to conditions: comparison with the other compounds. On the procedure:
as §1
In addition, four of the compounds were tested against human CEM and CEM/MTX lymphoblasts cultured fcr 48 hours in Dulbecco's modified Eagle's medium containing 10% fetal bovine serum. The IC50 (μM) values, with normalized values relative to MTX given in parentheses, are reported in the last two columns of Table 2.

Assay [13] concerns SCC15 cells. The assay is described as follows: Growth inhibition of human squamous carcinoma cells SCC15. The note with it: SCC-15, 336 h, continuous exposure about two weeks. The class given is cell-based.
For assay [14], the system named is parental SCC15 and SCC25 cells. Briefly: Growth inhibition of parental SCC15 and SCC25 cells (joint statement). The class given is cell-based, human.
Assay [15] concerns SCC25 cells. As to conditions: taken from Rosowsky et al. (1985); cited from earlier work.
Assay [16] has as its system SCC15/R1 cells. The note with it: taken from Rosowsky et al. (1985); cited from earlier work.
Assay [17] deals with mouse liver FPGS. The note with it: footnote c, Table 1; see Moran et al.; cited from earlier work.
The subject of assay [18] is SCC15 cells. The note with it: taken from Rosowsky et al. (1985); cited from earlier work.
The test system of assay [19] is SCC25/R1 cells. The note with it: taken from Rosowsky et al. (1985); cited from earlier work.
The test system of assay [20] is MTX-resistant SCC15/R1 and SCC25/R1 sublines. Briefly: Growth inhibition of MTX-resistant SCC15/R1 and SCC25/R1 sublines (joint statement). The class given is cell-based, human.
Where [21] appears, read: 48 hours, RPMI 1640, 10% fetal bovine serum.
Setting [22] is: L1210, 48 hours, RPMI 1640, 10% fetal bovine serum.
The mark [23] stands for this setting: 48 hours, Dulbecco's modified Eagle's medium, 10% fetal bovine serum.

Where two headings read alike, the source gives them in different places.

In the case of `Nc1nc(N)c2nc(CNc3ccc(C(=O)N[C@@H](CCC(=O)O)C(=O)O)cc3)cnc2n1` [Aminopterin, reference compound], in assay [1] (48 h), the IC50 amounted to 84000 nM.
For the compound `NCCC[C@H](NC(=O)c1ccc(NCc2cnc3nc(N)nc(N)c3n2)cc1)C(=O)O` [Compound 1, N^α -(4-Amino-4-deoxypteroyl)-L-ornithine], in assay [2], the “inhibitor of folylpolyglutamate synthetase” value was “potent inhibitor”. Also, the IC50 in assay [1] (48 h) is 32000 nM; in assay [4] (L1210, 48 h) it was 1300 nM. For the same compound, in [3], the “inhibitor of dihydrofolate reductase” value is listed as “potent inhibitor”. The “inhibitor of cell growth in culture” value in assay [5] was “relatively inactive”.
On to `CC(=O)NCCC[C@H](NC(=O)c1ccc(NCc2cnc3nc(N)nc(N)c3n2)cc1)C(=O)O` [Compound 2], for which the IC50 in [1] (setting [21]) amounted to 81000 nM; in assay [4] (setting [22]), 17 nM. Further, the “L1210/R81 normalized relative to MTX” value in [1] turned out to be 2.5. For the same compound, the “L1210 normalized relative to MTX” value in [4] is given as 0.27.
As for `Nc1nc(N)c2nc(CNc3ccc(C(=O)N[C@@H](CCCNC(=O)c4ccccc4)C(=O)O)cc3)cnc2n1` [Compound 4], the IC50 in assay [1] (setting [21]) was 17000 nM; in assay [6] (setting [23]), 1100 nM; in assay [4] (setting [22]) it was 0.89 nM; in [7], 0.56 to 1.5 nM; in [8] (setting [23]), 6.6 nM. Besides, the “L1210/R81 normalized relative to MTX” value in assay [1] was 12. The “CEM/MTX normalized relative to MTX” value in assay [6] came to 6.0. Moreover, the “L1210 normalized relative to MTX” value in assay [4] is recorded as 5.2. Also, in [8], the “CEM normalized relative to MTX” value stood at 5.0.
Regarding `Nc1nc(N)c2nc(CNc3ccc(C(=O)N[C@@H](CCCNC(=O)c4ccc(Cl)cc4)C(=O)O)cc3)cnc2n1` [Compound 5], the IC50 in assay [1] (setting [21]) was determined as 27000 nM; in assay [6] (setting [23]) it was 1000 nM; in assay [4] (setting [22]), 3.2 nM; in assay [8] (setting [23]), 270 nM. For the same compound, in assay [1], the “L1210/R81 normalized relative to MTX” value was 7.4. The “CEM/MTX normalized relative to MTX” value in assay [6] was 6.6. The “L1210 normalized relative to MTX” value in assay [4] is listed as 1.4. In addition, the “CEM normalized relative to MTX” value in assay [8] is given as 0.12.
As to `Nc1nc(N)c2nc(CNc3ccc(C(=O)N[C@@H](CCCNC(=O)c4ccc(Cl)c(Cl)c4)C(=O)O)cc3)cnc2n1` [Compound 6], the IC50 in assay [1] (setting [21]) is 127000 nM; in assay [6] (setting [23]) it was 10000 nM; in [4] (setting [22]), 32 nM; in assay [8] (setting [23]) it was 7400 nM. Also, the “L1210/R81 normalized relative to MTX” value in [1] came out at 1.6. The “CEM/MTX normalized relative to MTX” value in assay [6] is given as 0.66. Moreover, the “L1210 normalized relative to MTX” value in [4] is reported as 0.14. The “CEM normalized relative to MTX” value in assay [8] was 0.0043.
`Nc1nc(N)c2nc(CNc3ccc(C(=O)N[C@@H](CCCNC(=O)c4ccccc4C(=O)O)C(=O)O)cc3)cnc2n1` [Compound 7, N^α -(4-Amino-4-deoxypteroyl)-N^67-hemi-phthaloyl-L-Ornithine]: the IC50 was found to be 1.3 nM in [9]; 4 nM in assay [10]; 420 nM in assay [6] (48 h); 0.96 nM in assay [11]; 0.75 nM in [4] (L1210, 48 h); 1.1 nM in assay [13]. The IC50 in [8] (48 h) turned out to be 4.3 nM. Moreover, in [12], the “activity shown in Table 2, result in words” value is listed as “high activity”. Also, the “more potent than MTX against the parental SCC15 and SCC25 cells” value in assay [14] (more potent than MTX) is given as 10- to 30 fold.
`CN(Cc1cnc2nc(N)nc(N)c2n1)c1ccc(C(=O)N[C@@H](CCC(=O)O)C(=O)O)cc1` [Methotrexate]: the IC50 in assay [15] was 7.5 nM; in assay [1] (48 h) it was 200000 nM; in [6] (48 h), 6600 nM; in assay [16], 580 nM; in [18], 38 nM; in assay [8] (48 h), 32 nM. The IC50 in assay [19] is 150 nM. Further, the “substrate for mouse liver FPGS” value in assay [17] is reported as “substrates”.
Regarding `CN(Cc1cnc2nc(N)nc(N)c2n1)c1ccc(C(=O)N[C@@H](CCC(=O)OC(C)(C)C)C(=O)O)cc1` [γ-t-butyl ester of MTX, γ-tert. -butyl ester of methotrexate], the IC50 in [15] was 400 nM; in assay [16] it was 1300 nM; in assay [18], 600 nM; in assay [19], 780 nM. The “less potent than MTX against the MTX-resistant SCC15/R1 and SCC25/R1 sublines” value in assay [20] is “at least 30 fold”. For the same compound, in assay [14] (less potent than MTX), the “less potent than MTX against the parental SCC15 and SCC25 cells” value is reported as “at least 10 fold”.

These data come from patent US4767761A, “Ornithine derivatives and their use as methotrexate-resistant cell inhibitors” (priority 1987, dated 1988).
